Literature values as cited in patent US10485783B1, “Methods and compositions for reducing or eliminating symptoms of withdrawal from drugs and alcohol” (Longevity Healthcare Center, priority 2018, dated 2019).

Key:
[1] = system: GABAA and GABAB receptors; settings: synergistic with a GABAA receptor agonist, blocked by a GABAB receptor agonist
[2] = in vitro
[3] = system: rats self-administering morphine; settings: morphine 2 hours per day on 10 consecutive days, then ascorbic acid intraperitoneally

SMILES | anti-depressive activity [1] | concentration at which ascorbic acid generates free radicals (pro-oxidant) [2] [mM] | level of morphine self-administration (number of lever pressings) and number and intensity of withdrawal symptoms [3]
CNC1(c2ccccc2Cl)CCCCC1=O (stereo not shown) [Ketamine] | anti-depressive activity |  | 
O=C1O[C@H]([C@@H](O)CO)C(O)=C1O [ascorbic acid] | anti-depressive activity | 3 to 5 | decrease
